# Test results reported in US7282215B2, “Supports for photosensitizer formulations” (The University of British Columbia, priority 2000, dated 2007).
# Like-named read-outs stand apart in the source and are kept apart here. Marks after values point to notes of the source that are not given here.
# Experiments:
# [1] = Drug loading of liposomal versus 10% P123 formulations; assay type: physicochemical; conditions: prepared at 2 mg/ml; for Drug loading, P123: Pluronic P123 10% weight/volume; for Drug loading, Liposome: liposomal formulation
# Method: 5 mg drug and lipids (40% EPG in DMPC) are combined in CH2Cl2 at a drug to lipid ratio of 1:10 w/w in 250 ml round bottom flask. The maximum concentration of drug in solvent is 2 mg/ml. CH2Cl2 is removed rapidly as described in Example 5. The resulting thin film is hydrated with 2.5 ml lactose solution (9.5% w/v) using hand swirling with glass beads at 40° C. Extrusion using Model 4T (Lipex Biomembranes Inc. B.C., Canada) is carried out with the thermostat set at 40° C. The multilamellar vesicles (MLVs) arising from hydration steps of the liposomal formulation were also examined under the microscope. MLVs are successively extruded 5 times through each of the 400 nm, 200 nm and 100 nm polycarbonate membranes (Nuclepore PC, Costar). Extruded samples were diluted 1:100 in PBS (pH 7.4) and the absorbance determined at 690 nm wavelength.
# In this experiment liposomal and block copolymer (micellar) photosensitizer formulations of A- and B-ring compounds of EA6 and B3 were compared. Each of the photosensitizer samples was prepared at a final drug concentration of 2 mg/ml. The block copolymer P123, and the liposomal formulations were prepared as described in the Examples 5 and 6, respectively.
# [2] = Vesicle size of liposomal A-EA6 after microfluidization; assay type: physicochemical; conditions: for Size: 10 mL batch
# Method: MLVs obtained from each of the conventional and micro-thin films of EA6-A in 3% w/w DMPG/DMPC prepared in Example 24 were introduced into the reaction chamber of a small microfluidizer (23 ml capacity; M110S, Microfluidics). […] The reaction chamber was immersed in ice, with the pressure transducer (Dynisco μPR 690) setting adjusted to 10,000 psi.
# Use of the microfluidizer required priming the system with 9.2% lactose. The dead volume retained was considerably higher than stated in the manual, and as a result, only ˜2 mL of undiluted sample was recovered after the first pass in each case. […] Processing was carried out for a total of 6 passes, with 200 μl samples being removed for particle sizing following every pass. Due to limited recovery and dilution of the above samples, 2 larger batches (20 mL) were prepared using the conventional thin film process, and microfluidized with a total of 5 passes. To avoid excessive dilution of the unilammelar vesicles, recovery was limited to 8 mL.
# Microfluidisation was repeated with larger volumes of 20 mL. […] The final concentration of A-EA6 in both batches (HH02-5 A and HH02-5 B) was 1.5 mg/mL. These samples were processed with the microfluidiser in a hot water bath at 45° C. instead of ice to prevent suspension temperature falling below the phase transition of DMPC in between passes. Size determination was carried out by laser light scattering on a NICOMP™ 370 Submicron Particle Sizer.
# [3] = Liposomal drug release to FBS by fluorescence (Ffbs/Ftx); assay type: in vitro ADME, bovine; conditions: 37° C., n=2
# Method: This experiment test drug release from micro-thin film preparations and conventional thin film vesicles (76 nm and 98 nm) produced in Example 25. The assay was carried out using an Aminco-Bowman 2 Fluorescence Spectrometer. It has previously been observed in the liposomal photosensitizer formulations that the fluorescence from the photosensitizer drug is quenched due to the high ratio of drug to lipid present. […] Fluorescence signal from liposomal suspensions is therefore low, and increases only when the drug leaves the bilayer for an alternative binding site.
# The increase in fluorescence signal reflects liposomal drug transfer in proportion to the rate and extent of transfer to added serum components.
# The liposomal suspension is diluted with 5% Dextrose to give an absorbance of 0.1 at the excitation wavelength (430 nm). […] 100 μl of FBS is added to the cuvette, and increase in fluorescence is monitored (following a quick couple of inversions) over 2-3 min if necessary. Once a steady level is achieved (noted as Ffbs), the liposomal system is disrupted using 0.05% v/v Triton X-100 to get a 100% drug level. The maximum fluorescence level is noted as Ftx. The ratio of Ffbs/Ftx gives an estimation of liposomal drug release, and is highly reproducible (SD ˜0-2% for n=5). Reported release results are based on 2-5 repeat assays depending on instrumental stability.
# [4] = Vesicle size of liposomal A-EA6 after microfluidization; assay type: physicochemical
# L1210 cells = experiment: In vitro phototoxicity (MTT assay after light exposure); assay type: cell-based
# Method: Exposure to drugs was carried out in the presence and absence of fetal calf serum (FCS) as a model to study transfer of drug to cells in vivo. […] A suspension of L1210 cells was prepared and exposed to various drug formulations (drug concentrations ranging from 0-50 ng/ml) either in the absence or presence of 10% fetal calf serum (FCS). One hour later, the drug was removed by pelleting the cells by centrifugation. The pellet was briefly washed with 1 ml DME and resuspended in 5% FCS/DME. 100 μl of the cell suspension was aliquoted into 6 wells of a 96 well plate, and the plate exposed to light at 10 J/cm^2. Viability was determined 24 h post exposure using the MTT assay (Mosmann, J. Immunol. Meth. 65:55-63, 1983).
# [5] = system: M1 rhabdomyosarcoma tumor; experiment: PDT tumor recurrence in tumor mouse model; assay type: in vivo, DBA/2 mouse; set-up: key to Percent (%) Mice Tumor Free: Mice suffered from phototoxic (PT) reaction at the site of light exposure and were subsequently euthanized
# Method: Photosensitizer formulations were prepared in 10% w/v Pluronics as described in Example 4. BPD-MA was formulated in F127. B-ring compounds B-EA6 and B-B3, were prepared in P123 due to insufficient drug loading in F127. Liposomal BPD-MA formulation was Verteporfin™ and B-ring compounds were formulated in the same lipid composition. Where DMSO/plasma preparations were made, the DMSO dissolved drug was added directly to mouse plasma and the drug association with different plasma components was observed.
# In these experiments the tumor model used was the DBA/2 mouse (males) inoculated intradermally with M1 rhabdomyosarcoma tumor cells (M1, ATCC. When tumors reached a diameter of 4-6 mm, the mice (n=10, unless other wise stated) were treated with photodynamic therapy (PDT). PDT involved intravenous injection of the formulated drug in 0.2 mL volume of PBS. This was followed by exposure of the tumor region to laser light (Argon pumped dye laser (5W), 690 nm, 50J/cm2) 15 min later. Animals were then monitored for tumor recurrence over a 20 day period post treatment.
# [6] = pH studies of copolymer formulations; assay type: physicochemical; conditions: acidification
# Description: Counteracting the oily nature of P123 could be achieved by incorporation of copolymer that is in solid form at room temperature. The use of 1% w/w F127 with 9% w/v P123 instead of 10% P123 (w/v) produced a thin film, which was more readily hydrated. […] This necessitates hydration of the solid drug-polymer with a very mild buffer to counteract acidification which occurs upon use of sterile packed distilled water as commonly practiced in clinical settings. Behavior of poloxamers is unaffected by pH, and the use of buffers would be entirely dependent on ionizable groups present on the drug substance.
# [7] = JM4 at 2 mg/ml, after overnight storage and centrifugation
# Method: 1 to 2 mg drug and 25-100 mg Pluronic are combined in methylene dichloride (CH2Cl2) to yield drug concentration of 1 mg/ml. CH2Cl2 is removed rapidly by rotary evaporation (Rotavapor R-124, Bucchi B172 Vacobox pump) at 50°, at maximum speed of rotation. Once a steady minimum pressure is achieved, the flask is held under vacuum for a further 20-30 min. […] Samples are kept overnight at room temperature to allow unincorporated drug to fall out, and then spun at 14,000 rpm {Eppendorff, Microfuge} for 30 min. Supernatant is decanted off into a fresh Eppendorff vial, and diluted 1:100 in the iso-osmolar medium used for thin film hydration (PBS or lactose) for determination of absorbance 690 nm (A690). Formulations are stored at 4° C. or frozen at −20° C. for long term storage.
# In this experiment the following three selected dihydroxychlorins were examined for formulation with 10% P123. Each of the drugs was prepared to a final concentration level of 1 mg/ml and the formulation protocol used is described in Example 5. These compounds were prepared as described in U.S. patent application Ser. Nos. 09/551,159 and 09/551,160, both filed Apr. 14, 2000, and No. 60/129,324, filed Apr. 14, 1999, all three of which are hereby incorporated by reference as if fully set forth. One of these compounds, JM4, was further tested for drug incorporation using 2.5 to 10% P123.
compound,measurement,setting,value
C=Cc1c(C)c2cc3nc(cc4[nH]c(cc5nc(cc1[nH]2)C(C)=C5CCC(=O)OC)c(CCC(=O)OC)c4C)C1(C)C3=CC=C(C(=O)O)C1C(=O)OC (stereo not drawn) [A-B3],"Drug loading, P123",[1],1.33 mg/mL
same,"Drug loading, Liposome",[1],1.84 mg/mL
"C=Cc1c(C)c2cc3nc(cc4[nH]c(cc5nc(cc1[nH]2)C(C)=C5CCC(=O)OCCO)c(CCC(=O)OCCO)c4C)C1(C)C3=CC=C(C(=O)OC)C1C(=O)OC (stereo not drawn) [A-EA6, Diethyleneglycol Ester A-ring]","Drug loading, P123",[1],1.82 mg/mL
same,"Drug loading, Liposome",[1],0.98 mg/mL
same,Size,"[2]; conventional thin film, pass 3",81 + 21^2 nm
same,Size,"[2]; conventional thin film, pass 4",63 nm
same,Size,"[2]; conventional thin film, pass 5",66 nm
same,Size,"[2]; conventional thin film, pass 6",63 nm
same,Mean vesicle size,"[2]; conventional thin film, 20 mL, after the first pass",98 nm
same,Size,"[2]; micro-thin film, pass 1",141 + 54^2 nm
same,Size,"[2]; micro-thin film, pass 2",62 nm
same,Size,"[2]; micro-thin film, pass 3",67 nm
same,Size,"[2]; micro-thin film, pass 4",59 nm
same,Size,"[2]; micro-thin film, pass 5",60 nm
same,Size,"[2]; micro-thin film, pass 6",57 nm
same,Vesicle size,"[2]; microfluidized, 10 mL volume",~60 nm
same,Drug release from liposomal formulation to 5% FBS,[3]; micro-thin film batch,72%
same,Drug release from liposomal formulation to 5% FBS,[3]; thin film batch,67%
same,Vesicle size,[4]; final extrusion through 100 nm filters,100-110 nm
same,Mean vesicle size,"[4]; micro-thin film, 20 mL, after the first pass",76 nm
C=Cc1c(C)c2cc3nc(cc4[nH]c(cc5nc(cc1[nH]2)C1(C)C5=CC=C(C(=O)OC)C1C(=O)OC)c(C)c4CCC(=O)OCCO)C(CCC(=O)OCCO)=C3C (stereo not drawn) [B-EA6],"Drug loading, P123",[1],0.37 mg/mL
same,"Drug loading, Liposome",[1],0.06 mg/mL
same,LD50,"L1210 cells; Carrier Copolymer (P123), +FCS (10%)",12.9* ng/ml
same,LD50,"L1210 cells; Carrier Copolymer (P123), −FCS",2.06* ng/ml
same,LD50,"L1210 cells; Carrier DMSO, +FCS (10%)",20.0 ng/mL
same,LD50,"L1210 cells; Carrier DMSO, −FCS",4.7 ng/mL
same,LD50,"L1210 cells; Carrier Liposomal, +FCS (10%)",19.7 ng/mL
same,LD50,"L1210 cells; Carrier Liposomal, −FCS, 1 h drug, light 10 J/cm^2, MTT 24 h",4.7 ng/mL
same,Reaction at the irradiated site,"[5]; 1 mg/kg, formulated in P123, tumor bearing mice",strong phototoxic reaction (edema)
same,Percent (%) Mice Tumor Free,"[5]; Liposomal, 1.0 mg/kg i.v., 690 nm 50J/cm2 15 min later, Day 7",90%
same,Percent (%) Mice Tumor Free,"[5]; Liposomal, 1.0 mg/kg, Day 14",70%
same,Percent (%) Mice Tumor Free,"[5]; Liposomal, 1.0 mg/kg, Day 20",60%
same,Percent (%) Mice Tumor Free,"[5]; Pluronic P123, 0.5 mg/kg, Day 7",80%
same,Percent (%) Mice Tumor Free,"[5]; Pluronic P123, 0.5 mg/kg, Day 14",60%
same,Percent (%) Mice Tumor Free,"[5]; Pluronic P123, 0.5 mg/kg, Day 20",40%
same,Percent (%) Mice Tumor Free,"[5]; Pluronic P123, 1.0 mg/kg, Day 7",PT^1
same,Percent (%) Mice Tumor Free,"[5]; Pluronic P123, 1.0 mg/kg, Day 14",PT^1
same,Percent (%) Mice Tumor Free,"[5]; Pluronic P123, 1.0 mg/kg, Day 20",PT^1
same,pH dependency of formulation stability,[6],does not display any pH-dependency
"Cc1ccc(-c2c3nc(c(-c4ccc(C)cc4)c4ccc([nH]4)c(-c4ccc(C)cc4)c4nc(c(-c5ccc(C)cc5)c5ccc2[nH]5)C(O)C4O)C=C3)cc1 (stereo not drawn) [JM4, 5, 10, 15, 20-tetra (para-methyl phenyl)-2,-3-dihydroxychlorin]",Incorporation,[7]; P123 2.5% w/v,0.92 mg/mL
same,Incorporation,[7]; P123 5% w/v,1.43 mg/mL
same,Incorporation,[7]; P123 10% w/v,2.00 mg/mL
